In patent publication US20030031690A1, “Cosmetic composition for preventing and treating acnes containing cryptotanshinone” (priority 2001, published 2003):
≈ marks a conversion by molar mass, not a printed value.

Legend:
Propionibacterium acnes = assay: Antibacterial ability against Propionibacterium acnes (MIC on BHI solid flat medium); assay type: cell-based; details: P. acnes, three days
From the text: To measure the antibacterial ability of cryptotanshinone against Propionibacterium acnes (P. acnes hereinafter), P. acnes kept in a cold storage in original state was cultivated on a BHI (Brain Heart Infusion) solid flat medium three days before the beginning of experiment. On the day of experiment, the P. acnes previously cultivated was inoculated into BHI solid flat medium containing the predetermined concentration of cryptotanshinone. Three days later after that, the minimum inhibition concentration (MIC) is obtained by measuring the number of P. acnes. The experiment was conducted in the same manner as experimental example 5, except for using benzoyl peroxide instead of cryptotanshinone.

ears of mice = assay: Anti-inflammation effect, arachidonic acid-induced ear edema; assay type: in vivo; details: for Thickness of ear After applying agent / Thickness of ear Before applying agent: agent 0.3% in ethanol once a day for four days, average of 7 mice; for Thickness of ear After applying agent: 2 mg/ear arachidonic acid, one hour after; for Restraint rate: agent 0.3% in ethanol, (A − B)/A × 100 against comparative group
Procedure: When inflammation is generated due to P. acnes, become more serious. Accordingly, the effect of alleviating the inflammation due to acne is verified by assessing the anti-inflammatory effect of cryptotanshinone. The experiment is conducted by a method using arachidonic acid (A. Crummey, G. P. Harper, E. A. Boyle and F. R. Mangan. Inhibition of arachidonic acid-induced ear oedema as a model for assessing topical anti-inflammatory compound. Agents and Actions 1987; 20:69-76).
After washing both ears of mice with ethanol before applying the agent, 201 o f cryptotanshinone having a concentration of 0.3% is applied to the ears of mice belonging to an agent application group once a day for four days, while 201 o f ethanol is applied to mice in a comparative group. One hour after the last application, ethanol is applied to the left ears of mice and 2 mg/ear of arachidonic acid is applied to the right ears of mice. One hour after that, the degree of ear edema is repeatedly measured by micrometer three times for each ear. The left ears of mice in the agent application group are used as a comparative group for measuring the degree of inflammation being induced by the agent.
The anti-inflammatory effect is assessed by the degree that the edema in the agent application group is restrained by cryptotanshinone on the basis of the comparative group to which arachidonic acid is applied. The number of mice used for each group is seven and the value is an average of those of 7 mice.
The experiments are conducted in the same manner as experimental example 6, except for respectively using stearyl glycyrrhetinate and indomethacin instead of cryptotanshinone.

5 α-reductase = assay: Inhibition of 5 α-reductase (conversion of 3H-testosterone to dihydrotestosterone, HPLC); assay type: biochemical
Procedure: 30 l of Phosphate Buffered Saline (PBS/pH 6.6) is mixed with 101 of dithiothreitol, NADPH, and testosterone, into which radioactive isotopes are combined (3H-1, 2, 4, 5, 6, 7-testosterone), 401 of extract liquid of enzyme 5 α-reductase, and 20 l of cryptotanshinone having 0.001% of concentration. Next, the composition mentioned above is left at the normal temperature for 10 minutes so that the materials in the composition react to each other, and then the amount of converted dihydrotestosterone are measured by HPLC and a measuring instrument of radioisotope.
Inhibition rate (%)=[…].
The experiments are conducted in the same manner as experimental example 1, except for changing the concentration of cryptotanshinone as described in Table 1.

Which MIC (Propionibacterium acnes; Cutibacterium acnes, 72 h) does the source give for `O=C(OOC(=O)c1ccccc1)c1ccccc1` [Benzoyl peroxide, reference compound] here?
The MIC was 500 to 1000 µg/mL (≈ 2.06 to 4.13 mM).

With `COc1ccc2c(c1)c(CC(=O)O)c(C)n2C(=O)c1ccc(Cl)cc1` [Indomethacin, indomethacin] as the compound, how does the “Thickness of ear After applying agent” value (ears of mice) read?
Its value is 391.

What about the “Thickness of ear Before applying agent” value (ears of mice) of the same compound?
Its value is 273.

What about the Restraint rate (ears of mice) of the same compound?
The Restraint rate was 46.6%.

For Cryptotanshinone, which Inhibition rate (5 α-reductase; concentration of cryptotanshinone 0.001%) is on record?
Its Inhibition rate is 19.1%.

What about the Inhibition rate (5 α-reductase; concentration of cryptotanshinone 0.01%) of the same compound?
The Inhibition rate was 36.0%.

And the Inhibition rate (5 α-reductase; concentration of cryptotanshinone 0.1%)?
Its Inhibition rate is 45.9%.

And the Inhibition rate (5 α-reductase; concentration of cryptotanshinone 1.0%)?
The Inhibition rate was 100%.

And the “MIC (mole)” value (Propionibacterium acnes)?
Its value is 100-500 ppm.

What about the “Thickness of ear After applying agent” value (ears of mice) of the same compound?
Its value is 437.

What about the “Thickness of ear Before applying agent” value (ears of mice) of the same compound?
Its value is 271.

What about the Restraint rate (ears of mice) of the same compound?
The Restraint rate was 24.9%.

Which “Thickness of ear After applying agent” value (ears of mice) does the source give for `CCCCCCCCCCCCCCCCCCOC(=O)[C@@]1(C)CC[C@]2(C)CC[C@]3(C)C(=CC(=O)[C@@H]4[C@@]5(C)CC[C@H](O)C(C)(C)[C@@H]5CC[C@]43C)[C@@H]2C1` [Stearyl Glycyrrhetinate, stearyl glycyrrhetinate] here?
Its value is 454.

What about the “Thickness of ear Before applying agent” value (ears of mice) of the same compound?
Its value is 268.

What about the Restraint rate (ears of mice) of the same compound?
The Restraint rate was 15.8%.
